Reference: PMC9949808 (eLife, 2023)

Columns and labels:
[1] = target: T1, PSII reaction centre (Dunaliella salina, UniProt A0A1C8XRK9+D0FY08); experiment: cryo-EM structure; type: binding; conditions: type a inferred
T1 construct: gene psbA; native D1/D2 heterodimer in PSII C2S2 supercomplex purified from D. salina

[2] = target: photosystem II (PSII) core, one of the two cores of the dimer (Dunaliella salina); experiment: cryo-EM structure; native PSII purified from D. salina thylakoids (1% α-DM, sucrose gradient), in 25 mM MES pH 6.5, 1 mM CaCl2, 5 mM MgCl2, 0.1% α-DM; unstacked particles: C2S2 compact 2.43 Å, C2S2 stretched 2.62 Å, C2S 3.61 Å

| stoichiometry N [2] | Compound | cryo-EM structure [1] |
| --- | --- | --- |
|  | C=Cc1c(C)c2cc3nc(c4c5[nH]c(cc6nc(cc1[nH]2)C(C)=C6CC)c(C)c5C(=O)[C@@H]4C(=O)OC)[C@@H](CCC(=O)OC/C=C(\C)CCC[C@H](C)CCC[C@H](C)CCCC(C)C)[C@@H]3C [pheophytin] | PSII reaction centre chlorophylls (Chls), pheophytins, and quinone |
| 2 | photosystem II (PSII) core, one of the two cores of the dimer (complex) |  |
